Article PMC6098982 (Natural product research, 2018)

What was measured:
CB2 receptor = CB2 receptor (Homo sapiens, UniProt P34972); experiment: CB2 receptor displacement; assay type: binding
Delta opioid receptor = Delta opioid receptor (Homo sapiens, UniProt P41143); experiment: Delta opioid receptor displacement; assay type: binding
Mu opioid receptor = Mu opioid receptor (Homo sapiens, UniProt P35372); experiment: Mu opioid receptor displacement; assay type: binding
Trypanosoma brucei = experiment: Inhibition of Trypanosoma brucei; assay type: cell-based
Leishmania donovani = experiment: Activity towards Leishmania donovani; assay type: cell-based
Escherichia coli = experiment: Inhibition of Escherichia coli; assay type: cell-based

Sequence of CB2 receptor (P34972 whole entry): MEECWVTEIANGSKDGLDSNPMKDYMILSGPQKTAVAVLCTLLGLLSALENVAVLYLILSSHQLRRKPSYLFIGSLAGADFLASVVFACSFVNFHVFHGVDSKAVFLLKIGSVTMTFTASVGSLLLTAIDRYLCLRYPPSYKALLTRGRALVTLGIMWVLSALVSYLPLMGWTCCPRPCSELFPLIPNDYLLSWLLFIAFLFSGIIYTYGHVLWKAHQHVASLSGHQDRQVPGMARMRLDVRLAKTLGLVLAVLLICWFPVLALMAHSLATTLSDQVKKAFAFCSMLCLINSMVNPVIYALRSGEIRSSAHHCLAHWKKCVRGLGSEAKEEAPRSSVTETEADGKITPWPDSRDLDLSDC
Sequence of Mu opioid receptor (P35372 whole entry): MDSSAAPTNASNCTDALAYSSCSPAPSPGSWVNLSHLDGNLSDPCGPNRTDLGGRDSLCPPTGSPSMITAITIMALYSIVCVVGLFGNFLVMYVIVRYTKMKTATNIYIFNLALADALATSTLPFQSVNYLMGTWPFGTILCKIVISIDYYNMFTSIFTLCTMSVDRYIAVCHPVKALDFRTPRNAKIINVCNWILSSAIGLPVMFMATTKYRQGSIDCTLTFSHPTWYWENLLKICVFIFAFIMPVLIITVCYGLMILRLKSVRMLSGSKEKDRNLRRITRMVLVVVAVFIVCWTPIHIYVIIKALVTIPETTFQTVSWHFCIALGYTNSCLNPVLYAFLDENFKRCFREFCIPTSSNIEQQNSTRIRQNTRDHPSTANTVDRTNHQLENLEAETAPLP
Sequence of Delta opioid receptor (P41143 whole entry): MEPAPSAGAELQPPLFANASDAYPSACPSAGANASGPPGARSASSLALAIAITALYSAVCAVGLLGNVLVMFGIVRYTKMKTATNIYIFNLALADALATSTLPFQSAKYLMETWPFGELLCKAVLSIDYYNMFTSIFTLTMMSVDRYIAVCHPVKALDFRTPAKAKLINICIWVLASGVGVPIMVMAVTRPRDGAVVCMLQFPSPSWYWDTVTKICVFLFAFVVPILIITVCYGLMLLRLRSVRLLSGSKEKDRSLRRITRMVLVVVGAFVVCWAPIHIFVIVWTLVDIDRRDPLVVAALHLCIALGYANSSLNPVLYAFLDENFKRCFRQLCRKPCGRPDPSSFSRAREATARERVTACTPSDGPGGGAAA

| Compound | IC50 (CB2 receptor) [µM] | displacement in CB2 receptor (CB2 receptor) [%] | displacement in Delta opioid receptor (Delta opioid receptor) [%] | displacement in Mu opioid receptor (Mu opioid receptor) [%] | inhibition towards Trypanosoma brucei (Trypanosoma brucei) [%] | IC50 (Trypanosoma brucei; Trypanosoma brucei, read-out: IC50 T. brucei) [µM] | activity towards Leishmania donovani (Leishmania donovani) [%] | IC50 (Leishmania donovani; Leishmania donovani, read-out: IC50 Leishmania donovani) [µM] | inhibition towards Escherichia coli Pinh (Escherichia coli) [%] | IC50 (Escherichia coli; read-out: IC50 Escherichia coli) [µM] |
| --- | --- | --- | --- | --- | --- | --- | --- | --- | --- | --- |
| CC1=C[C@H](O)CC(C)(C)[C@H]1/C=C/C(C)=C/C=C/C(C)=C/C=C/C=C(C)/C=C/C=C(C)/C=C/C1=C(C)C[C@@H](O)CC1(C)C [Compound 4, lutein] | 56.5 | 73 | 65 | 49 | 93 | 4.16 | 48 | 9.3 | – | – |
| myricitrin [Compound 11] | – | – | – | – | – | – | – | – | 99 | 1.12 |
